Experimental data from patent publication EP4707280A1, “1,4-CINEOLE DERIVATIVE AND INTERMEDIATE THEREOF, HERBICIDE CONTAINING SAID DERIVATIVE AS ACTIVE INGREDIENT, METHOD FOR USING HERBICIDE, AND METHOD FOR PREPARING AGROCHEMICAL COMPOSITION” (HOKKO CHEMICAL INDUSTRY CO., LTD., priority 2023, dated 2024).

Key:
Assay type in all cases: in vivo
[1] = system: Digitaria ciliaris; assay: Test Example 8: herbicidal effect test by stem and leaf treatment in upland field (low dose); details: Digitaria ciliaris; 7.5 g per 10 ares; sprayed seven days after sowing, upland soil; 14 days after application; read-out: weed inhibition rate
[2] = system: Echinochloa crus-galli; assay: as above; details: Echinochloa crus-galli; 7.5 g per 10 ares; sprayed seven days after sowing, upland soil; 14 days after application; read-out: weed inhibition rate
[3] = system: Digitaria ciliaris; assay: Test Example 3: herbicidal effect test by soil application in upland field; details: Digitaria ciliaris, 120 g per 10 ares, sprayed one day after sowing, 14 days after application, read-out: weed inhibition rate
How it was run: (§1)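 Weed inhibition (%) was assessed 14 days after treatment, in duplicate per concentration group. Seeds had been mixed into the upper 1 cm of upland alluvial loam, and the soil surface was sprayed one day later with the diluted emulsifiable concentrate at 120 g active ingredient per 10 ares.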

[4] = system: Echinochloa crus-galli; assay: as above; details: Echinochloa crus-galli, 120 g per 10 ares, sprayed one day after sowing, 14 days after application, read-out: weed inhibition rate
How it was run: as §1

[5] = system: Digitaria ciliaris; assay: Test Example 7: herbicidal effect test by soil application in upland field (low dose); details: Digitaria ciliaris, 7.5 g per 10 ares, sprayed one day after sowing, 14 days after application, read-out: weed inhibition rate
How it was run: (§2)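 Pre-emergence soil treatment: 7.5 g a.i. per 10 a applied as water-diluted emulsifiable concentrate (100 L/10 a) to soil surface one day post-sowing in alluvial loam. Inhibition (%) assessed at 14 days, duplicate pots per concentration.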

[6] = system: Echinochloa crus-galli; assay: as above; details: Echinochloa crus-galli, 7.5 g per 10 ares, sprayed one day after sowing, 14 days after application, read-out: weed inhibition rate
How it was run: as §2

[7] = system: Echinochloa crus-galli var. formosensis; assay: Test Example 2: herbicidal effect test by application during growth period of paddy rice; details: Echinochloa crus-galli; 120 g per 10 ares; applied seven days after sowing, flooded pots; 14 days after application; read-out: weed inhibition rate
How it was run: (§3)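 Herbicidal effect was scored 14 days after treatment, in duplicate per concentration. Weeds sown 0–1 cm deep in puddled, fertilized paddy soil under about 3 cm of standing water received a water-diluted emulsifiable concentrate by dropper 7 days post-sowing, at 120 g a.i. per 10 ares.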

[8] = system: Echinochloa crus-galli var. formosensis; assay: Test Example 6: herbicidal effect test by application during growth period of paddy rice (low dose); details: Echinochloa crus-galli; 7.5 g per 10 ares; applied seven days after sowing, flooded pots; 14 days after application; read-out: weed inhibition rate
How it was run: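 Emulsifiable concentrate, water-diluted, dropped onto flooded paddy pots 7 days post-sowing at 7.5 g active ingredient/10 a. Greenhouse-grown weeds; percent inhibition scored at day 14 after treatment.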

[9] = system: Digitaria ciliaris; assay: Test Example 4: herbicidal effect test by stem and leaf treatment in upland field; details: Digitaria ciliaris; 120 g per 10 ares; sprayed seven days after sowing, upland soil; 14 days after application; read-out: weed inhibition rate
[10] = system: Scirpus juncoides; assay: Test Example 2: herbicidal effect test by application during growth period of paddy rice; details: Schoenoplectiella juncoides; 120 g per 10 ares; applied seven days after sowing, flooded pots; 14 days after application; read-out: weed inhibition rate
How it was run: as §3

CC(C)[C@]12C[C@@H](OCc3cccc(F)c3F)[C@](C)(CC1=O)O2 [2-14, (1R,4S,5R)-5-((2,3-difluorobenzyl)oxy)-1-isopropyl-4-methyl-7-oxabicyclo[2.2.1]heptan-2-one]
≥ 80%: inhibition at 75 g/ha [1] | inhibition at 75 g/ha [2] | inhibition at 1200 g/ha [3] | inhibition at 1200 g/ha [4] | inhibition at 75 g/ha [5] | inhibition at 75 g/ha [6] | inhibition at 1200 g/ha [7] | inhibition at 75 g/ha [8] | inhibition at 1200 g/ha [9]

CCOC(C)O[C@H]1C[C@]2(C)O[C@@]1(C(C)C)C[C@H]2OCc1c(F)cccc1F (stereo partly drawn) [1-223, (1S,2R,4R,5S)-2-((2,6-difluorobenzyl)oxy)-5-(1-ethoxyethoxy)-4-isopropyl-1-methyl-7-oxabicyclo[2.2.1]heptane]
≥ 80%: inhibition at 75 g/ha [2] | inhibition at 1200 g/ha [3] | inhibition at 1200 g/ha [4] | inhibition at 75 g/ha [5] | inhibition at 75 g/ha [6] | inhibition at 1200 g/ha [10] | inhibition at 1200 g/ha [7] | inhibition at 75 g/ha [8] | inhibition at 1200 g/ha [9]

CC(C)[C@]12C=C[C@](C)(O1)[C@H](OCc1c(F)cccc1F)C2 [3-7, (1R,4S,5R)-5-[(2,6-difluorophenyl)methoxy]-4-methyl-1-isopropyl-7-oxabicyclo[2.2.1]hept-2-ene]
≥ 80%: inhibition at 75 g/ha [1] | inhibition at 75 g/ha [2] | inhibition at 1200 g/ha [3] | inhibition at 1200 g/ha [4] | inhibition at 75 g/ha [5] | inhibition at 75 g/ha [6] | inhibition at 1200 g/ha [10] | inhibition at 1200 g/ha [7] | inhibition at 75 g/ha [8] | inhibition at 1200 g/ha [9]

CCC1C[C@]2(C)O[C@@]1(C(C)C)C[C@H]2OCc1ccccc1F (stereo partly drawn) [1-126, (1R,4S,5R)-2-ethyl-5-[(2-fluorobenzyl)oxy]-1-isopropyl-4-methyl-7-oxabicyclo[2.2.1]heptane]
≥ 80%: inhibition at 75 g/ha [1] | inhibition at 75 g/ha [2] | inhibition at 1200 g/ha [3] | inhibition at 1200 g/ha [4] | inhibition at 75 g/ha [5] | inhibition at 75 g/ha [6] | inhibition at 1200 g/ha [7] | inhibition at 75 g/ha [8] | inhibition at 1200 g/ha [9]

CC(C)[C@]12C[C@@H](OCc3ccccc3F)[C@](C)(C[C@@H]1OS(=O)(=O)C(F)(F)F)O2 [1-525, (1R,2S,4S,5R)-5-((2-fluorobenzyl)oxy)-1-isopropyl-4-methyl-7-oxabicyclo[2.2.1]heptan-2-yl trifluoromethanesulfonate]
≥ 80%: inhibition at 75 g/ha [1] | inhibition at 75 g/ha [2] | inhibition at 1200 g/ha [3] | inhibition at 1200 g/ha [4] | inhibition at 75 g/ha [5] | inhibition at 1200 g/ha [7] | inhibition at 75 g/ha [8] | inhibition at 1200 g/ha [9]

CCC1C[C@]2(C)O[C@@]1(C(C)C)C[C@H]2OCc1ccccc1C (stereo partly drawn) [1-123, (1R,4S,5R)-2-ethyl-1-isopropyl-4-methyl-5-((2-methylbenzyl)oxy)-7-oxabicyclo[2.2.1]heptane]
≥ 80%: inhibition at 75 g/ha [1] | inhibition at 75 g/ha [2] | inhibition at 1200 g/ha [3] | inhibition at 1200 g/ha [4] | inhibition at 75 g/ha [5] | inhibition at 1200 g/ha [7] | inhibition at 75 g/ha [8] | inhibition at 1200 g/ha [9]

CC(C)[C@]12C[C@@H](OCc3c(Cl)cccc3Cl)[C@](C)(CC1=O)O2 [2-26, (1R,4S,5R)-5-((2,6-dichlorobenzyl)oxy)-1-isopropyl-4-methyl-7-oxabicyclo[2.2.1]heptan-2-one]
≥ 80%: inhibition at 75 g/ha [1] | inhibition at 1200 g/ha [3] | inhibition at 1200 g/ha [4] | inhibition at 75 g/ha [5] | inhibition at 75 g/ha [6] | inhibition at 1200 g/ha [7] | inhibition at 75 g/ha [8] | inhibition at 1200 g/ha [9]

Cc1ccccc1CO[C@@H]1C[C@]2(C(C)C)O[C@@]1(C)C[C@@H]2Br [1-16, (1S,2R,4R,5S)-5-bromo-1-methyl-2-[(2-methylphenyl)methoxy]-4-isopropyl-7-oxabicyclo[2.2.1]heptane]
≥ 80%: inhibition at 75 g/ha [1] | inhibition at 75 g/ha [2] | inhibition at 1200 g/ha [3] | inhibition at 1200 g/ha [4] | inhibition at 75 g/ha [6] | inhibition at 1200 g/ha [7] | inhibition at 75 g/ha [8] | inhibition at 1200 g/ha [9]

Cc1cccc(C)c1CO[C@@H]1C[C@@]2(C(C)C)C=C[C@]1(C)O2 [3-3, (1R,4S,5R)-5-[(2,6-dimethylphenyl)methoxy]-4-methyl-1-isopropyl-7-oxabicyclo[2.2.1]hept-2-ene]
≥ 80%: inhibition at 1200 g/ha [3] | inhibition at 1200 g/ha [4] | inhibition at 1200 g/ha [10] | inhibition at 1200 g/ha [7] | inhibition at 75 g/ha [8] | inhibition at 1200 g/ha [9]

CCCO[C@H]1C[C@]2(C)O[C@@]1(C(C)C)C[C@H]2OCc1ccccc1F [1-1604, (1S,2R,4R,SS)-2-[(2-fluorophenyl)methoxy]-1-methyl-4-isopropyl-5-propoxy-7-oxabicyclo[2.2.1]heptane]
≥ 80%: inhibition at 75 g/ha [1] | inhibition at 75 g/ha [2] | inhibition at 1200 g/ha [3] | inhibition at 1200 g/ha [4] | inhibition at 75 g/ha [5] | inhibition at 75 g/ha [6] | inhibition at 1200 g/ha [10] | inhibition at 1200 g/ha [7] | inhibition at 75 g/ha [8] | inhibition at 1200 g/ha [9]

CCOC(C)O[C@H]1C[C@]2(C)O[C@@]1(C(C)C)C[C@H]2OCc1ccccc1C (stereo partly drawn) [1-208, (1R,2S,4S,5R)-2-(1-ethoxyethoxy)-1-isopropyl-4-methyl-5-((2-methylbenzyl)oxy)-7-oxabicyclo[2.2.1]heptane]
≥ 80%: inhibition at 75 g/ha [2] | inhibition at 1200 g/ha [3] | inhibition at 1200 g/ha [4] | inhibition at 75 g/ha [5] | inhibition at 75 g/ha [6] | inhibition at 1200 g/ha [10] | inhibition at 1200 g/ha [7] | inhibition at 75 g/ha [8] | inhibition at 1200 g/ha [9]
